According to patent US20220340564A1, “ANTIBACTERIAL COMPOUNDS” (Janssen Sciences Ireland Unlimited Company, priority 2019, published 2022):

What follows are molecules tested on Mycobacterium tuberculosis strain EH4.0 expressing green-fluorescent protein (GFP) (assay: microbe, parasite or virus in culture). Conditions: 168 h, read-out: pIC50 (converted).
Assay type: cell-based
`CCc1nc2cc(NC)c(Cl)cn2c1C(=O)NCc1ccc(N2CCN(S(=O)(=O)C(F)(F)F)C=N2)c(F)c1` [Compound 80] gave an IC50 of no less than 501 nM. For `CCOc1cn2c(CC)c(C(=O)NCc3ccc(N4CCN(S(=O)(=O)C(F)(F)F)C=N4)c(F)c3)nc2nc1N1CCCC1` [Compound 81], the IC50 was no less than 501 nM. For `CCc1nc2nc(N3CCCC3)c(Cl)cn2c1C(=O)NCc1ccc(N2CCN(S(=O)(=O)C(F)(F)F)C=N2)c(F)c1` [Compound 82], the IC50 was no less than 501 nM. Molecule `CCc1nc2nc(NC)c(Cl)cn2c1C(=O)NCc1ccc(N2CCN(S(=O)(=O)C(F)(F)F)C=N2)c(F)c1` [Compound 83] has an IC50 of 372 nM. Molecule `CCc1nc2c(C)cc(Cl)cn2c1C(=O)NCc1ccc(N2CCN(S(=O)(=O)C(F)(F)F)C=N2)c(F)c1` [Compound 85] has an IC50 of 95.5 nM. Work on `CCc1nc2nc(OC)c(Cl)cn2c1C(=O)NCc1ccc(N2CCN(S(=O)(=O)C(F)(F)F)C=N2)c(F)c1` [Compound 86] yielded an IC50 of 89.1 nM. Work on `CCc1nc2c(Cl)cc(Cl)cn2c1C(=O)NCc1ccc(N2CCN(S(=O)(=O)C(F)(F)F)C=N2)c(F)c1` [Compound 87] yielded an IC50 of 89.1 nM. `CCc1nc2c(C)cc(F)cn2c1C(=O)NCc1ccc(N2CCN(S(=O)(=O)C(F)(F)F)C=N2)c(F)c1` [Compound 89] gave an IC50 of 83.2 nM. With `CCc1nc2nc3c(cn2c1C(=O)NCc1ccc(N2CCN(S(=O)(=O)C(F)(F)F)C=N2)c(F)c1)COCC3` [Compound 90] the IC50 was 74.1 nM. `CCc1nc2cc(OC)c(Cl)cn2c1C(=O)NCc1ccc(N2CCN(S(=O)(=O)C(F)(F)F)C=N2)c(F)c1` [Compound 93] gave an IC50 of 49 nM. `CCc1nc2ccc(Cl)cn2c1C(=O)NCc1ccc(N2CCNC(OC)=N2)cc1` [Compound 96] showed an IC50 of 36.3 nM. For `CCc1nc2cc(Br)c(C)cn2c1C(=O)NCc1ccc(N2CCN(S(=O)(=O)C(F)(F)F)C=N2)c(F)c1` [Compound 97], the IC50 was 33.9 nM. With `COC1=NN(c2ccc(CNC(=O)c3c(C(F)(F)F)nc4n3CCCC4)cc2)CCN1S(=O)(=O)C(F)(F)F` [Compound 98] the IC50 was 33.1 nM. With `O=C(NCc1ccc(N2CCN(S(=O)(=O)C(F)(F)F)C=N2)c(F)c1)c1c(Br)nc2n1CCC2` [Compound 99] the IC50 was 32.4 nM. Work on `CCc1nc2cc3c(cn2c1C(=O)NCc1ccc(N2CCN(S(=O)(=O)C(F)(F)F)C=N2)c(F)c1)OCCO3` [Compound 100] yielded an IC50 of 31.6 nM. In the case of `CCc1nc2ccc(C3CC3)cn2c1C(=O)NCc1ccc(N2CCN(S(=O)(=O)C(F)(F)F)C=N2)c(F)c1` [Compound 101], the IC50 is reported as 29.5 nM. Molecule `CCc1nc2c(Cl)cc(C)cn2c1C(=O)NCc1ccc(N2CCN(S(=O)(=O)C(F)(F)F)C=N2)c(F)c1` [Compound 102] has an IC50 of 29.5 nM. Work on `CCc1nc2cc(Br)c(Cl)cn2c1C(=O)NCc1ccc(N2CCN(S(=O)(=O)C(F)(F)F)C=N2)c(F)c1` [Compound 103] yielded an IC50 of 28.2 nM. `O=C(NCc1ccc(N2CCN(S(=O)(=O)C(F)(F)F)C=N2)cc1)c1c(C(F)F)nc2n1CCCC2` [Compound 104] gave an IC50 of 28.2 nM. In the case of `CCc1nc2c(C)cc(OC)cn2c1C(=O)NCc1ccc(N2CCN(S(=O)(=O)C(F)(F)F)C=N2)c(F)c1` [Compound 105], the IC50 is reported as 27.5 nM. In the case of `CCc1nc2cc(OC)c(C)cn2c1C(=O)NCc1ccc(N2CCN(S(=O)(=O)C(F)(F)F)C=N2)c(F)c1` [Compound 106], the IC50 is reported as 25.7 nM. With `CCc1nc2cc(C)c(Cl)cn2c1C(=O)NCc1ccc(N2CCN(S(=O)(=O)C(F)(F)F)C=N2)cc1` [Compound 107] the IC50 was 24 nM. In the case of `CCc1nc2cc(C)c(Cl)cn2c1C(=O)NCc1ccc(N2CCN(S(=O)(=O)C(F)(F)F)C(OC)=N2)cc1` [Compound 108], the IC50 is reported as 20.4 nM. With `COC1=NN(c2ccc(CNC(=O)c3c(C(F)F)nc4n3CCCC4)cc2)CCN1S(=O)(=O)C(F)(F)F` [Compound 109] the IC50 was 20 nM. In the case of `CCc1nc2ccc(Cl)cn2c1C(=O)NCc1ccc(N2CCNC(OC)=N2)c(F)c1` [Compound 110], the IC50 is reported as 18.6 nM. In the case of `CCc1nc2nc(C)ccn2c1C(=O)NCc1ccc(N2CCN(S(=O)(=O)C(F)(F)F)C=N2)c(F)c1` [Compound 111], the IC50 is reported as 18.2 nM. `COC1=NN(c2ccc(CNC(=O)c3c(C(F)(F)F)nc4n3CCCC4)cc2F)CCN1S(=O)(=O)C(F)(F)F` [Compound 112] showed an IC50 of 17.4 nM. In the case of `CCc1nc2cc3c(cn2c1C(=O)NCc1ccc(N2CCN(S(=O)(=O)C(F)(F)F)C=N2)c(F)c1)CCC3` [Compound 113], the IC50 is reported as 16.2 nM. In the case of `O=C(NCc1ccc(N2CCN(S(=O)(=O)C(F)(F)F)C=N2)c(F)c1)c1c(C(F)(F)F)nc2cc(F)c(Cl)cn12` [Compound 114], the IC50 is reported as 16.2 nM. `CCc1nc2nc(OC)ccn2c1C(=O)NCc1ccc(N2CCN(S(=O)(=O)C(F)(F)F)C=N2)c(F)c1` [Compound 115] was tested, and the IC50 was 15.8 nM. Molecule `CCc1nc2cc(C)c(Cl)cn2c1C(=O)NCc1ccc(N2CCN(S(=O)(=O)C(F)(F)F)C=N2)c(F)c1` [Compound 116] has an IC50 of 15.1 nM. `COC1=NN(c2ccc(CNC(=O)c3c(C(F)(F)F)nc4ccc(Cl)cn34)cc2F)CCN1S(=O)(=O)C(F)(F)F` [Compound 117] was tested, and the IC50 was 14.8 nM. `CCc1nc2cc(Cl)c(Cl)cn2c1C(=O)NCc1ccc(N2CCN(S(=O)(=O)C(F)(F)F)C=N2)c(F)c1` [Compound 118] showed an IC50 of 13.8 nM. `CCc1nc2nc3c(cn2c1C(=O)NCc1ccc(N2CCN(S(=O)(=O)C(F)(F)F)C=N2)c(F)c1)CCCC3` [Compound 119] was tested, and the IC50 was 13.5 nM. `CCc1nc2ccc(Cl)cn2c1C(=O)NCc1ccc(N2CCN(c3cccs3)C(OC)=N2)cc1` [Compound 120] showed an IC50 of 12.9 nM. In the case of `CCc1nc2ncc(F)cn2c1C(=O)NCc1ccc(N2CCN(S(=O)(=O)C(F)(F)F)C(OC)=N2)c(F)c1` [Compound 121], the IC50 is reported as 12.9 nM. With `O=C(NCc1ccc(N2CCN(S(=O)(=O)C(F)(F)F)C=N2)c(F)c1)c1c(C(F)(F)F)nc2n1CCCC2` [Compound 123] the IC50 was 10.2 nM. Work on `O=C(NCc1ccc(N2CCN(S(=O)(=O)C(F)(F)F)C=N2)c(F)c1)c1c(C(F)(F)F)nc2ccc(Cl)cn12` [Compound 124] yielded an IC50 of 10 nM. In the case of `CCc1nc2nc(Cl)ccn2c1C(=O)NCc1ccc(N2CCN(S(=O)(=O)C(F)(F)F)C=N2)c(F)c1` [Compound 125], the IC50 is reported as 9.77 nM. Molecule `CCc1nc2nc(N)c(Cl)cn2c1C(=O)NCc1ccc(N2CCN(S(=O)(=O)C(F)(F)F)C=N2)c(F)c1` [Compound 126] has an IC50 of 9.77 nM. In the case of `O=C(NCc1ccc(N2CCN(S(=O)(=O)C(F)(F)F)C=N2)cc1)c1c(C(F)(F)F)nc2ccccn12` [Compound 127], the IC50 is reported as 9.55 nM. Work on `O=C(NCc1ccc(N2CCN(S(=O)(=O)C(F)(F)F)C=N2)cc1)c1c(C(F)F)nc2ccccn12` [Compound 128] yielded an IC50 of 9.12 nM. `CCc1nc2c(Cl)cccn2c1C(=O)NCc1ccc(N2CCN(S(=O)(=O)C(F)(F)F)C=N2)c(F)c1` [Compound 129] showed an IC50 of 8.91 nM. For `CCc1nc2ncc(F)cn2c1C(=O)NCc1ccc(N2CCN(S(=O)(=O)C(F)(F)F)C=N2)c(F)c1` [Compound 130], the IC50 was 8.71 nM. With `CCc1nc2cc3c(cn2c1C(=O)NCc1ccc(N2CCN(S(=O)(=O)C(F)(F)F)C=N2)c(F)c1)OCC3` [Compound 131] the IC50 was 8.71 nM. `CCc1nc2cc(C)c(Cl)cn2c1C(=O)NCc1ccc(N2CCN(S(=O)(=O)C(F)(F)F)C(OC)=N2)c(F)c1` [Compound 132] gave an IC50 of 8.32 nM. Work on `Cc1nc2sc(Cl)cn2c1C(=O)NCc1ccc(N2CCN(S(=O)(=O)C(F)(F)F)C=N2)c(F)c1` [Compound 133] yielded an IC50 of 7.59 nM. With `CCc1nc2cc3c(cn2c1C(=O)NCc1ccc(N2CCN(S(=O)(=O)C(F)(F)F)C=N2)c(F)c1)OCO3` [Compound 134] the IC50 was 7.59 nM. Work on `CCc1nc2sc(Cl)cn2c1C(=O)NCc1ccc(N2CCN(S(=O)(=O)C(F)(F)F)C=N2)c(F)c1` [Compound 135] yielded an IC50 of 7.24 nM.
